Patent US10206907B2, “Compounds useful for the treatment of degenerative and inflammatory diseases” (GALAPAGOS NV, priority 2008, dated 2019)
Like-named read-outs stand apart in the source and are kept apart here.

Key:
[1] = biological target: Recombinant human JAK2 catalytic domain (Homo sapiens (Human), UniProt O60674); experiment: JAK2 inhibition assay; format: biochemical; conditions: semi-quantitative score
How it was run: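 Radiometric kinase reactions ran for 90 min at 30 °C and were stopped with phosphoric acid, then washed and counted by scintillation. Percent inhibition was set relative to vehicle and to 10 μM staurosporine background. IC50 was derived from dose-dilution series.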

[2] = Microsomal stability, rat liver microsomes; format: in vitro ADME; conditions: percentage of compound remaining after 60 minutes, 3 μM compound
How it was run: (§1)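 Compound was incubated with liver microsomes plus an NADP+/glucose-6-phosphate/G6PDH/MgCl2 regenerating system at 37°C for 1 h. Reactions were stopped 1:1 with MeOH or ACN and analysed by LCMS.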

MMP13 in SW1353 cells = experiment: OSM/IL-1β signaling assay (MMP13 levels in SW1353 cells); format: cell-based; conditions: Homo sapiens; SW1353 cells, OSM and IL-1β triggered, MMP13 levels 48 hours after triggering; read-out: MMP13 EC50;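 further: secreted MMP13 captured by antibody, activated with APMA and its activity read by fluorescence, inhibition scaled between vehicle-treated triggered wells (0%) and untriggered wells (100%)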
Experimental: The cells were seeded in 96 well plates at 15,000 cells/well in a volume of 120 μL DMEM (Invitrogen) containing 10% (v/v) FBS and 1% penicillin/streptomycin (InVitrogen) incubated at 37° C. […] MMP13 activity was measured using an antibody capture activity assay. […] Next the wells were washed twice with PBS+0.05% Tween followed by MMP13 activation by addition of 35 μL of a 1.5 mM 4-Aminophenylmercuric acetate (APMA) (Sigma, A9563) solution and incubation at 37° C. for 1 hour. […] Percentage inhibition=((fluorescence determined in the presence of vehicle−fluorescence determined for sample with test compound present) divided by (fluorescence determined in the presence of vehicle−fluorescence determined for sample without trigger))*100%.

[3] = Microsomal stability, human liver microsomes; format: in vitro ADME; conditions: percentage of compound remaining after 60 minutes, 3 μM compound
How it was run: as §1

[4] = biological target: Recombinant human JAK1 catalytic domain (Homo sapiens (Human), UniProt P23458); experiment: JAK1 inhibition assay; format: biochemical
How it was run: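 Radiometric assay read by scintillation counting after phosphoric-acid washes. Percent inhibition calculated from cpm relative to vehicle and 10 μM staurosporine control. IC50 derived from compound dose-dilution series.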

[5] = biological target: Recombinant human JAK3 catalytic domain (Homo sapiens (Human), UniProt P52333); experiment: JAK3 inhibition assay; format: biochemical; conditions: semi-quantitative score
[6] = system: JAK-STAT signalling in HeLa cells; experiment: JAK-STAT signalling assay (OSM-triggered pSTAT1(2)-luciferase reporter in HeLa cells); format: cell-based; conditions: Homo sapiens; HeLa cells, OSM-triggered pSTAT1(2)-luciferase reporter; read-out: STAT signalling EC50
How it was run: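 HeLa cells transiently transfected with pSTAT1(2)-luciferase reporter plus LacZ internal control, incubated overnight at 37 °C, 10% CO2, then OSM-stimulated with compound. Luciferase read by Steadylite luminescence and normalised to β-galactosidase (ONPG); percent inhibition from controls, EC50 from dose-response.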

[7] = Caco2 permeability (bi-directional); format: in vitro ADME, human; conditions: human, pH 7.4; for Papp A→B at 1 h, 10 µM: Caco-2, apical to basolateral, read-out: Papp (A2B); for efflux ratio at 1 h, 10 µM: Caco-2, ratio of PappB>A/PappA>B
How it was run: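 Bidirectional transport across Caco-2 monolayers was run for 1 h at 37 °C with shaking, with 50 μM Lucifer Yellow in the donor to check monolayer integrity (acceptance ≤100 nm/s). Apical and basal compound levels were measured by LC-MS/MS, and efflux ratio was taken as PappB>A/PappA>B.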

[8] = biological target: Recombinant human TYK2 catalytic domain (Homo sapiens (Human), UniProt P29597); experiment: TYK2 inhibition assay; format: biochemical; conditions: semi-quantitative score
Experimental: After 90 min at 30° C., reactions were stopped by adding of 25 μL/well of 150 mM phosphoric acid. […] Plates were washed 6 times with 300 μL per well of a 75 mM phosphoric acid solution and the bottom of the plates was sealed. 40 μL/well of Microscint-20 was added, the top of the plates was sealed and readout was performed using the Topcount (Perkin Elmer). Kinase activity was calculated by subtracting counts per minute (cpm) obtained in the presence of a positive control inhibitor (10 μM staurosporine) from cpm obtained in the presence of vehicle. The ability of a test compound to inhibit this activity was determined as: Percentage inhibition=((cpm determined for sample with test compound present−cpm determined for sample with positive control inhibitor) divided by (cpm determined in the presence of vehicle−cpm determined for sample with positive control inhibitor))*100%.
Dose dilution series were prepared for the compounds enabling the testing of dose-response effects in the TYK2 assay and the calculation of the IC50 for each compound.

Recombinant human TYK2 catalytic domain, sequence (P29597 871-1187): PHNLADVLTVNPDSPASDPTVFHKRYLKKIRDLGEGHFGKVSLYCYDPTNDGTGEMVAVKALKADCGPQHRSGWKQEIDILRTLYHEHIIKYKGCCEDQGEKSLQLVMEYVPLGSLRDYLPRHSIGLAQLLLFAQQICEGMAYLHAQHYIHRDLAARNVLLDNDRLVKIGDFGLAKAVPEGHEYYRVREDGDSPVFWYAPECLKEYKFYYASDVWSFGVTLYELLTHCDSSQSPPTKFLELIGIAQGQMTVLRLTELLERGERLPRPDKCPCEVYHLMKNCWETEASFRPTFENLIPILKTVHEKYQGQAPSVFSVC
Recombinant human JAK1 catalytic domain, sequence (P23458 850-1154): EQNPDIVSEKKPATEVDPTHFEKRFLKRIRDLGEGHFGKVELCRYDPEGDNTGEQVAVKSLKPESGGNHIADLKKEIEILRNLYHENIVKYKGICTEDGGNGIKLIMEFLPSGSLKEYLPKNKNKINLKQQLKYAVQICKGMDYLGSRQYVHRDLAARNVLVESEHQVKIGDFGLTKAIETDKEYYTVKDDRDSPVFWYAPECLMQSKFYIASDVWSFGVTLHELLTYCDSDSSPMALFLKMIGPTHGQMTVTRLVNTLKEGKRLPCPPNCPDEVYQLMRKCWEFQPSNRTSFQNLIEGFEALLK
Recombinant human JAK3 catalytic domain, sequence (P52333 781-1124): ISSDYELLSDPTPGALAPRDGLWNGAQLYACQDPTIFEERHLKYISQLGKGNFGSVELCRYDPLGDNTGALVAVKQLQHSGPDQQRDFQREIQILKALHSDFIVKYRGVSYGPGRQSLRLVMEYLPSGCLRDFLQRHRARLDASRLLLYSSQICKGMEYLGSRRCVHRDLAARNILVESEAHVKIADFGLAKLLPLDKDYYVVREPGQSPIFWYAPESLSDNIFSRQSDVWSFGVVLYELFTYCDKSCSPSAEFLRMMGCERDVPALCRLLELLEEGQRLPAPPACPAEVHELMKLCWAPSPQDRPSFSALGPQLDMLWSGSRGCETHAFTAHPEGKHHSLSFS
Recombinant human JAK2 catalytic domain, sequence (O60674 808-1132): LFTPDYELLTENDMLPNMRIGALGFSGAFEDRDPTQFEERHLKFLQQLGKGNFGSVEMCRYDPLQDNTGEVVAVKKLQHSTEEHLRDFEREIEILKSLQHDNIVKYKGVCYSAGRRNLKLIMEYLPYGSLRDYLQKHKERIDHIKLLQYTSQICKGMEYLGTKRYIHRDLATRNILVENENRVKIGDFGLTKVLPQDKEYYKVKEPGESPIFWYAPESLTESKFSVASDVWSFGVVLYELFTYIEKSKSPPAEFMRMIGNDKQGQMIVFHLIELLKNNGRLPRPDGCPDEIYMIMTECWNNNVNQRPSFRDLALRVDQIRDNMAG

Cn1ccc(COc2ccc(-c3cccc4nc(NC(=O)C5CC5)nn34)cc2)n1 [Compound 48]
IC50 [1]: 0.101 to 0.5 µM | Microsomal Stability Rat (%) [2]: *** (*** 51-75) | EC50 (MMP13 in SW1353 cells): > 1 µM | Microsomal Stability Human (%) [3]: *** (*** 51-75) | IC50 ([4]; semi-quantitative score): < 0.1 µM | IC50 [5]: > 1 µM | EC50 [6]: > 1 µM | Papp A→B at 1 h, 10 µM [7]: 28.8 ×10⁻⁶ cm/s | efflux ratio at 1 h, 10 µM [7]: 1 | IC50 [8]: > 1 µM

O=C(Nc1nc2cccc(-c3ccc(C(=O)N4CCC(F)(F)C4)cc3)n2n1)C1CC1 [Compound 271, Cyclopropanecarboxylic acid (5-[4-(3,3-difluoro-pyrrolidine-1-carbonyl)-phenyl]-[1,2,4]triazolo[1,5-a]pyridin-2-yl}-amide]
IC50 [1]: < 0.1 µM | Microsomal Stability Rat (%) [2]: **** (**** 76-100) | EC50 (MMP13 in SW1353 cells): 0.501 to 1 µM | Microsomal Stability Human (%) [3]: **** (**** 76-100) | IC50 ([4]; semi-quantitative score): < 0.1 µM | IC50 [5]: 0.101 to 0.5 µM | EC50 [6]: 0.101 to 0.5 µM | Papp A→B at 1 h, 10 µM [7]: 4 ×10⁻⁶ cm/s | efflux ratio at 1 h, 10 µM [7]: 13 | IC50 [8]: < 0.1 µM

CC(=O)Nc1nc2cccc(-c3ccc(OCc4ccccc4)cc3)n2n1 [Compound 163, N-(5-(4-(benzyloxy)phenyl)-[1,2,4]triazolo[1,5-a]pyridin-2-yl)acetamide]
IC50 [1]: < 0.1 µM | Microsomal Stability Rat (%) [2]: ** (** 26-50) | EC50 (MMP13 in SW1353 cells): > 1 µM | Microsomal Stability Human (%) [3]: *** (*** 51-75) | IC50 [4]: < 0.1 µM | IC50 [5]: 0.101 to 0.5 µM | EC50 [6]: > 1 µM | efflux ratio at 1 h, 10 µM [7]: 0.85 | IC50 [8]: > 1 µM

O=C(NCCc1ccccc1)c1ccc(-c2cccc3nc(NC(=O)C4CC4)nn23)c(F)c1 [Compound 111, 4-(2-(cyclopropanecarboxamido)-[1,2,4]triazolo[1,5-a]pyridin-5-yl)-3-fluoro-N-phenethylbenzamide]
IC50 [1]: 0.101 to 0.5 µM | Microsomal Stability Rat (%) [2]: ** (** 26-50) | EC50 (MMP13 in SW1353 cells): > 1 µM | Microsomal Stability Human (%) [3]: ** (** 26-50) | IC50 ([4]; semi-quantitative score): < 0.1 µM | IC50 [5]: 0.501 to 1 µM | EC50 [6]: 0.501 to 1 µM | Papp A→B at 1 h, 10 µM [7]: 8.23 ×10⁻⁶ cm/s | efflux ratio at 1 h, 10 µM [7]: 2.9 | IC50 [8]: > 1 µM

O=C(Nc1nc2cccc(-c3ccc(S(=O)(=O)NC4CC4)cc3)n2n1)C1CC1 [Compound 13, N-(5-(4-(N-cyclopropylsulfamoyl)phenyl)-[1,2,4]triazolo[1,5-a]pyridin-2-yl)cyclopropanecarboxamide]
IC50 [1]: < 0.1 µM | Microsomal Stability Rat (%) [2]: **** (**** 76-100) | EC50 (MMP13 in SW1353 cells): > 1 µM | Microsomal Stability Human (%) [3]: *** (*** 51-75) | IC50 ([4]; semi-quantitative score): < 0.1 µM | IC50 [5]: > 1 µM | EC50 [6]: > 1 µM | Papp A→B at 1 h, 10 µM [7]: 3.03 ×10⁻⁶ cm/s | efflux ratio at 1 h, 10 µM [7]: 11.9 | IC50 [8]: 0.501 to 1 µM

NC(=O)c1ccccc1NCc1ccc(-c2cccc3nc(NC(=O)C4CC4)nn23)cc1 [Compound 306, 2-{4-[2-(Cyclopropanecarbonyl-amino)-[1,2,4]triazolo[1,5-a]pyridin-5-yl]-benzylamino}-benzamide]
IC50 [1]: < 0.1 µM | Microsomal Stability Rat (%) [2]: ** (** 26-50) | EC50 (MMP13 in SW1353 cells): 0.501 to 1 µM | Microsomal Stability Human (%) [3]: *** (*** 51-75) | IC50 ([4]; semi-quantitative score): < 0.1 µM | IC50 [5]: < 0.1 µM | EC50 [6]: 0.101 to 0.5 µM | Papp A→B at 1 h, 10 µM [7]: 6.55 ×10⁻⁶ cm/s | efflux ratio at 1 h, 10 µM [7]: 6.55 | IC50 [8]: < 0.1 µM

O=C(Nc1nc2cccc(-c3ccc(CNc4ccon4)cc3)n2n1)C1CC1 [Compound 302, Cyclopropanecarboxylic acid {5-[4-(isoxazol-3-ylaminomethyl)-phenyl]-[1,2,4]triazolo[1,5-a]pyridin-2-yl}-amide]
IC50 [1]: < 0.1 µM | Microsomal Stability Rat (%) [2]: *** (*** 51-75) | EC50 (MMP13 in SW1353 cells): > 1 µM | Microsomal Stability Human (%) [3]: *** (*** 51-75) | IC50 ([4]; semi-quantitative score): < 0.1 µM | IC50 [5]: 0.101 to 0.5 µM | EC50 [6]: 0.101 to 0.5 µM | Papp A→B at 1 h, 10 µM [7]: 8.45 ×10⁻⁶ cm/s | efflux ratio at 1 h, 10 µM [7]: 5.98 | IC50 [8]: < 0.1 µM

O=C(Nc1nc2cccc(-c3ccc(CC(=O)N4CC(F)(F)C4)cc3)n2n1)C1CC1 [Compound 317, Cyclopropanecarboxylic acid (5-{4-[2-(3,3-difluoro-azetidin-1-yl)-2-oxo-ethyl]-phenyl}-[1,2,4]triazolo[1,5-a]pyridin-2-yl)-amide]
IC50 [1]: < 0.1 µM | Microsomal Stability Rat (%) [2]: *** (*** 51-75) | EC50 (MMP13 in SW1353 cells): > 1 µM | Microsomal Stability Human (%) [3]: **** (**** 76-100) | IC50 ([4]; semi-quantitative score): < 0.1 µM | IC50 [5]: > 1 µM | EC50 [6]: 0.501 to 1 µM | Papp A→B at 1 h, 10 µM [7]: 4.3 ×10⁻⁶ cm/s | efflux ratio at 1 h, 10 µM [7]: 10.1 | IC50 [8]: 0.101 to 0.5 µM

O=C(Nc1nc2cccc(-c3ccc(OCc4ccccc4)c(F)c3)n2n1)C1CC1 [Compound 15, N-(5-(4-(benzyloxy)-3-fluorophenyl)-[1,2,4]triazolo[1,5-a]pyridin-2-yl)cyclopropanecarboxamide]
IC50 [1]: < 0.1 µM | Microsomal Stability Rat (%) [2]: * (* 0-25) | EC50 (MMP13 in SW1353 cells): > 1 µM | Microsomal Stability Human (%) [3]: ** (** 26-50) | IC50 ([4]; semi-quantitative score): < 0.1 µM | IC50 [5]: 0.101 to 0.5 µM | EC50 [6]: 0.101 to 0.5 µM | efflux ratio at 1 h, 10 µM [7]: 0.91 | IC50 [8]: > 1 µM

O=C(Nc1nc2cccc(-c3ccc(C(=O)N4CCCCC4)cc3)n2n1)C1CC1 [Compound 17]
IC50 [1]: 0.101 to 0.5 µM | Microsomal Stability Rat (%) [2]: ** (** 26-50) | EC50 (MMP13 in SW1353 cells): > 1 µM | Microsomal Stability Human (%) [3]: **** (**** 76-100) | IC50 ([4]; semi-quantitative score): < 0.1 µM | IC50 [5]: > 1 µM | EC50 [6]: > 1 µM | Papp A→B at 1 h, 10 µM [7]: 11.4 ×10⁻⁶ cm/s | efflux ratio at 1 h, 10 µM [7]: 2.97 | IC50 [8]: 0.501 to 1 µM

Cc1n[nH]c(C)c1CCOc1ccc(-c2cccc3nc(NC(=O)C4CC4)nn23)cc1 [Compound 51]
IC50 [1]: < 0.1 µM | Microsomal Stability Rat (%) [2]: * (* 0-25) | EC50 (MMP13 in SW1353 cells): > 1 µM | Microsomal Stability Human (%) [3]: * (* 0-25) | IC50 ([4]; semi-quantitative score): < 0.1 µM | IC50 [5]: 0.501 to 1 µM | EC50 [6]: 0.101 to 0.5 µM | Papp A→B at 1 h, 10 µM [7]: 10.9 ×10⁻⁶ cm/s | efflux ratio at 1 h, 10 µM [7]: 3.64 | IC50 [8]: 0.501 to 1 µM

O=C(CCc1ccccc1)Nc1ccc(-c2cccc3nc(NC(=O)C4CC4)nn23)cc1 [Compound 109, N-(5-(4-(3-phenylpropanamido)phenyl)-[1,2,4]triazolo[1,5-a]pyridin-2-yl)cyclopropanecarboxamide]
IC50 [1]: < 0.1 µM | Microsomal Stability Rat (%) [2]: * (* 0-25) | EC50 (MMP13 in SW1353 cells): 0.501 to 1 µM | Microsomal Stability Human (%) [3]: * (* 0-25) | IC50 ([4]; semi-quantitative score): < 0.1 µM | IC50 [5]: 0.501 to 1 µM | EC50 [6]: 0.501 to 1 µM | Papp A→B at 1 h, 10 µM [7]: 19 ×10⁻⁶ cm/s | efflux ratio at 1 h, 10 µM [7]: 2.5 | IC50 [8]: > 1 µM
